Laboratory results: ChEMBL document CHEMBL1201862, “PubChem BioAssay data set” (2004)
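Test compounds were applied to cells in 96-well plates for 48 hours at 5 doses. Here, GI50 denotes the concentration required for 50% inhibition of growth.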 The source made the active and inactive calls. Rule as the data show it: active = GI50 up to about 1.1 µM and inactive = higher.

Key:
Experiment in all cases: growth of human tumour cells (NCI), 48 h
OVCAR-4 = system: OVCAR-4
786-0 = system: 786-0
HL-60 = system: HL-60
HCC 2998 = system: HCC 2998
MDA-MB-231 = system: MDA-MB-231
HOP-62 = system: HOP-62
SK-MEL-2 = system: SK-MEL-2
NCI-H226 = system: NCI-H226
OVCAR-5 = system: OVCAR-5
SK-MEL-5 = system: SK-MEL-5
OVCAR-8 = system: OVCAR-8
KM12 = system: KM12
CCRF-CEM = system: CCRF-CEM
MDA-MB-435 = system: MDA-MB-435
MDA-N = system: MDA-N
Hs-578T = system: Hs-578T
PC-3 = system: PC-3
M14 = system: M14
SW-620 = system: SW-620
SF-539 = system: SF-539

Measured: GI50

CCOC(=O)OC1(c2ccccc2)CCN(C)CC1
inactive: OVCAR-4 > 100 µM | 786-0 > 100 µM | HL-60 > 100 µM | HCC 2998 > 100 µM | MDA-MB-231 > 100 µM | HOP-62 > 100 µM | SK-MEL-2 > 100 µM | NCI-H226 > 100 µM | OVCAR-5 > 100 µM | SK-MEL-5 > 100 µM | OVCAR-8 > 100 µM | KM12 > 100 µM | CCRF-CEM > 100 µM | MDA-MB-435 > 100 µM | MDA-N > 100 µM | Hs-578T > 100 µM | PC-3 > 100 µM | M14 > 100 µM | SW-620 > 100 µM | SF-539 > 100 µM

[N-]=[N+]=CC(=O)OCC1NC(=O)C(COC(=O)C=[N+]=[N-])NC1=O (stereo unspecified)
inactive: OVCAR-4 > 100 µM | 786-0 > 100 µM | HL-60 > 100 µM | HCC 2998 > 100 µM | MDA-MB-231 > 100 µM | HOP-62 > 100 µM | SK-MEL-2 > 100 µM | NCI-H226 > 100 µM | OVCAR-5 > 100 µM | OVCAR-8 > 100 µM | KM12 > 100 µM | CCRF-CEM > 100 µM | MDA-MB-435 > 100 µM | MDA-N > 100 µM | Hs-578T > 100 µM | PC-3 > 100 µM | M14 > 100 µM | SW-620 > 100 µM | SF-539 > 100 µM

CCSc1cc(=O)n(C)c(=O)n1C
inactive: OVCAR-4 > 100 µM | 786-0 > 100 µM | HL-60 > 100 µM | HCC 2998 > 100 µM | MDA-MB-231 > 100 µM | HOP-62 > 100 µM | SK-MEL-2 > 100 µM | NCI-H226 > 100 µM | OVCAR-5 > 100 µM | SK-MEL-5 > 100 µM | OVCAR-8 > 100 µM | KM12 > 100 µM | CCRF-CEM > 100 µM | MDA-MB-435 > 100 µM | MDA-N > 100 µM | Hs-578T > 100 µM | PC-3 > 100 µM | M14 > 100 µM | SW-620 > 100 µM | SF-539 > 100 µM

COc1c(O)ccc(C2=Cc3ccc(O)cc3OC2)c1OC
inactive: OVCAR-4 23.9 µM | 786-0 16.3 µM | HL-60 2.82 µM | HCC 2998 21 µM | MDA-MB-231 20.7 µM | HOP-62 20.9 µM | SK-MEL-2 23.4 µM | NCI-H226 23.4 µM | OVCAR-5 30.1 µM | SK-MEL-5 16.1 µM | OVCAR-8 18 µM | KM12 7.33 µM | CCRF-CEM 4.37 µM | MDA-MB-435 7.64 µM | MDA-N 3.68 µM | Hs-578T 19.5 µM | PC-3 18.6 µM | M14 21 µM | SW-620 26.7 µM | SF-539 16.3 µM

O=[N+]([O-])c1ccc(Cl)cc1/C=N/C12CC3CC(CC(C3)C1)C2
inactive: OVCAR-4 63.5 µM | 786-0 41.1 µM | HL-60 5.77 µM | HCC 2998 > 82.4 µM | MDA-MB-231 40.3 µM | HOP-62 60.8 µM | SK-MEL-2 > 66.8 µM | NCI-H226 61.5 µM | OVCAR-5 > 100 µM | SK-MEL-5 56.6 µM | OVCAR-8 43.1 µM | KM12 29 µM | CCRF-CEM 5.64 µM | MDA-MB-435 47.6 µM | MDA-N 52.5 µM | Hs-578T 51.8 µM | PC-3 35.9 µM | M14 45.5 µM | SW-620 22 µM | SF-539 31.7 µM

CCOC(=O)c1c(-c2ccc(Cl)cc2)c(C#N)c(=S)n(C2OC(COC(C)=O)C(OC(C)=O)C(OC(C)=O)C2OC(C)=O)c1-c1ccccc1 (stereo unspecified)
inactive: OVCAR-4 > 100 µM | 786-0 > 100 µM | HL-60 > 100 µM | HCC 2998 > 100 µM | MDA-MB-231 > 100 µM | HOP-62 > 100 µM | SK-MEL-2 > 100 µM | OVCAR-5 > 100 µM | SK-MEL-5 28 µM | KM12 > 100 µM | CCRF-CEM > 100 µM | MDA-MB-435 > 100 µM | MDA-N > 100 µM | Hs-578T > 100 µM | PC-3 > 100 µM | M14 57.5 µM | SW-620 > 100 µM | SF-539 > 100 µM

COc1ccc(C2C(C#N)=C(S)N(C3OC(COC(C)=O)C(OC(C)=O)C(OC(C)=O)C3OC(C)=O)C(c3ccccc3)=C2C(C)=O)cc1 (stereo unspecified)
inactive: OVCAR-4 > 100 µM | 786-0 > 100 µM | HL-60 63.8 µM | HCC 2998 > 100 µM | MDA-MB-231 > 100 µM | HOP-62 > 100 µM | SK-MEL-2 > 100 µM | NCI-H226 > 100 µM | OVCAR-5 > 100 µM | SK-MEL-5 53.7 µM | OVCAR-8 > 100 µM | KM12 > 100 µM | CCRF-CEM > 100 µM | MDA-MB-435 33.6 µM | MDA-N 58.5 µM | Hs-578T 70.8 µM | PC-3 > 100 µM | M14 > 100 µM | SF-539 76.7 µM

O=C1CSC2=NC3=C(COC/C3=C\c3ccc(Br)cc3)C(c3ccc(Br)cc3)N12 (stereo unspecified)
inactive: OVCAR-4 > 100 µM | 786-0 83.6 µM | HL-60 12.9 µM | HCC 2998 > 100 µM | MDA-MB-231 > 100 µM | HOP-62 > 100 µM | SK-MEL-2 > 100 µM | NCI-H226 > 100 µM | OVCAR-5 > 100 µM | SK-MEL-5 96.4 µM | OVCAR-8 74.6 µM | KM12 29.1 µM | CCRF-CEM 17.6 µM | MDA-MB-435 49 µM | MDA-N 43 µM | Hs-578T > 100 µM | PC-3 41.8 µM | M14 28.8 µM | SW-620 52.4 µM | SF-539 > 100 µM

O=C(O)c1ccc2c(c1)CC1(C2)Cc2cc3c(cc2C1=O)CCC3 (stereo unspecified)
inactive: OVCAR-4 > 100 µM | 786-0 > 100 µM | HL-60 > 100 µM | HCC 2998 > 100 µM | MDA-MB-231 > 100 µM | HOP-62 > 100 µM | SK-MEL-2 > 100 µM | NCI-H226 > 100 µM | OVCAR-5 > 100 µM | SK-MEL-5 93.8 µM | OVCAR-8 97.9 µM | KM12 > 100 µM | CCRF-CEM > 100 µM | MDA-MB-435 > 100 µM | MDA-N > 100 µM | Hs-578T > 100 µM | PC-3 > 100 µM | M14 > 100 µM | SW-620 > 100 µM | SF-539 > 100 µM

C1CSCCSCCSCCSCCS1
inactive: OVCAR-4 > 100 µM | 786-0 > 100 µM | HL-60 > 100 µM | HCC 2998 > 100 µM | MDA-MB-231 > 100 µM | HOP-62 > 100 µM | SK-MEL-2 > 100 µM | NCI-H226 > 100 µM | OVCAR-5 > 100 µM | SK-MEL-5 > 100 µM | OVCAR-8 > 100 µM | KM12 > 100 µM | MDA-MB-435 > 100 µM | MDA-N > 100 µM | Hs-578T > 100 µM | PC-3 > 100 µM | M14 > 100 µM | SW-620 > 100 µM | SF-539 > 100 µM

COc1nc(-c2c[nH]c3ccccc23)cnc1N
inactive: OVCAR-4 29.6 µM | 786-0 15.6 µM | HL-60 4.85 µM | HCC 2998 67.9 µM | MDA-MB-231 18.1 µM | HOP-62 48.9 µM | SK-MEL-2 25 µM | OVCAR-5 14.4 µM | SK-MEL-5 37.9 µM | OVCAR-8 31.5 µM | KM12 9.18 µM | MDA-MB-435 23.4 µM | MDA-N 18.4 µM | Hs-578T 17.7 µM | PC-3 26.5 µM | M14 30.1 µM | SW-620 32.6 µM | SF-539 33.7 µM
active: CCRF-CEM 0.809 µM

COc1ccc2c(c1)CN1C(=N2)CSC1c1cc([N+](=O)[O-])ccc1Cl (stereo unspecified)
inactive: OVCAR-4 39.1 µM | 786-0 37.9 µM | HL-60 16.8 µM | HCC 2998 33.1 µM | MDA-MB-231 54.5 µM | HOP-62 75.2 µM | SK-MEL-2 31.1 µM | NCI-H226 42 µM | OVCAR-5 58.5 µM | SK-MEL-5 25.6 µM | OVCAR-8 48.8 µM | KM12 28.1 µM | MDA-MB-435 19.4 µM | MDA-N 17.8 µM | Hs-578T 47.1 µM | PC-3 36.1 µM | M14 31.6 µM | SW-620 31 µM | SF-539 28.5 µM

O=C(O)C1=NN(c2ccc(S(=O)(=O)O)cc2)C2(C1)C(Cl)C(=O)N2c1nc2ccccc2s1 (stereo unspecified)
inactive: OVCAR-4 16.4 µM | 786-0 16.1 µM | HL-60 16.2 µM | HCC 2998 18.8 µM | MDA-MB-231 19 µM | HOP-62 12.5 µM | SK-MEL-2 15.6 µM | NCI-H226 16.5 µM | OVCAR-5 17.1 µM | SK-MEL-5 12.8 µM | OVCAR-8 17.6 µM | KM12 14.9 µM | MDA-MB-435 16.2 µM | MDA-N 21.4 µM | Hs-578T 47.6 µM | PC-3 16.6 µM | M14 15.7 µM | SW-620 2.68 µM | SF-539 4.4 µM

O=C(/C=C/c1ccccc1)Oc1cccc(Br)c1
inactive: OVCAR-4 93.8 µM | 786-0 > 100 µM | HL-60 18.1 µM | HCC 2998 35.7 µM | MDA-MB-231 > 100 µM | HOP-62 > 100 µM | SK-MEL-2 > 100 µM | NCI-H226 > 100 µM | OVCAR-5 > 100 µM | SK-MEL-5 55.3 µM | OVCAR-8 60.4 µM | KM12 31.8 µM | MDA-MB-435 > 100 µM | MDA-N 96.6 µM | Hs-578T 16.6 µM | PC-3 93.1 µM | M14 78.7 µM | SW-620 44.2 µM | SF-539 39.9 µM
